Tests used:
Slc:SD rats = assay: Water-immersion stress ulceration method (antiulcer activity); format: in vivo, rat (male Slc:SD); conditions: 30 minutes before stress loading; for U.I. (ulcer index) Mean ± S.E.: non-treated control 13.4 ± 2.71
Experimental: After stress loading for 7 hours, the rats were killed through exsanguination, and the stomachs were removed, perfused in the inside with 10 ml of 2% formalin and then immersed in the same solution for 10 minutes for fixation. The stomachs were incised along the greater curvature, and the ulcers thus induced were measured for length under the stereoscopic microscope (magnification×10), whereby the total sum of the lengths was taken as an ulcer index (U.I., in mm). The test substance was given orally to rats in the form of a 4% gum arabic suspension 30 minutes before stress loading.

Acute toxicity = assay: Acute toxicity; set-up: species or system mouse (male ddY); conditions: mouse, in vivo; mice, oral, single dose, observed for 7 days
Description: A group of five male ddY mice (4-weeks aged) was used for testing.
The compound of Example 4 was suspended in 4% gum arabic solution to prepare a test pharmaceutical, which was given orally to each test animal once.

[1] = 30 mg/kg orally, test substance marked *p < 0.05

Compound	U.I. (ulcer index) Mean ± S.E. (Slc:SD rats; 30 mg/kg orally) [mm]	Inhibition rate (Slc:SD rats; [1]) [%]	LD50 at 168 h (Acute toxicity) [mg/kg]	Inhibition rate (Slc:SD rats; 10 mg/kg orally) [%]	U.I. (ulcer index) Mean ± S.E. (Slc:SD rats; 10 mg/kg orally) [mm]	Inhibition rate (Slc:SD rats; 100 mg/kg orally, marked **p < 0.01) [%]	U.I. (ulcer index) Mean ± S.E. (Slc:SD rats; 100 mg/kg orally) [mm]
CN/C(=N/CCSCc1nc[nH]c1C)NC#N [Cimetidine, reference compound]	5.2 ± 3.40	61.4	–	–	–	–	–
Cc1ccc(Nc2ccccc2NC(=O)C[n+]2ccccc2)cc1.[Cl-] [Example 4, 1-[2-[[2-[(4-methylphenyl)amino]phenyl]amino]-2-oxoethyl]pyridinium chloride]	3.3 ± 1.82	75.1	≥ 2000	19.0	10.8 ± 3.15	90.0	1.3 ± 0.88

Source: patent US5055469A, “Quaternary pyridinium salts useful for ulcer treatment” (Hamari Chemicals, Ltd., priority 1988, dated 1991)
